Experimental data as given in the NIST ThermoML archive (doi:10.1016/j.jct.2006.07.017).
± gives the expanded uncertainty stated by the source.

Test: xn = mol fraction of the nth substance listed
Conditions: 101 kPa, Liquid

Cc1cccc(C)c1 [1,3-dimethylbenzene] + CN(C)C=O
Conditions | mass density [kg/m3]
293.15 K, x1 = 0.0541 | 942.31 ± 0.46
293.15 K, x1 = 0.1151 | 935.54 ± 0.49
293.15 K, x1 = 0.1752 | 929.18 ± 0.53
293.15 K, x1 = 0.2332 | 923.31 ± 0.57
293.15 K, x1 = 0.3021 | 916.67 ± 0.62
293.15 K, x1 = 0.3661 | 910.82 ± 0.67
293.15 K, x1 = 0.4341 | 904.88 ± 0.72
293.15 K, x1 = 0.4984 | 899.53 ± 0.77
293.15 K, x1 = 0.5624 | 894.44 ± 0.83
293.15 K, x1 = 0.6165 | 890.3 ± 0.88
293.15 K, x1 = 0.6751 | 885.98 ± 0.93
293.15 K, x1 = 0.7315 | 881.96 ± 0.99
293.15 K, x1 = 0.8085 | 876.67 ± 1.1
293.15 K, x1 = 0.8758 | 872.21 ± 1.1
293.15 K, x1 = 0.9425 | 867.93 ± 1.2
303.15 K, x1 = 0.0625 | 932.16 ± 0.49
303.15 K, x1 = 0.1251 | 925.21 ± 0.53
303.15 K, x1 = 0.1852 | 918.87 ± 0.56
303.15 K, x1 = 0.2515 | 912.21 ± 0.61
303.15 K, x1 = 0.3251 | 905.23 ± 0.66
303.15 K, x1 = 0.3895 | 899.45 ± 0.71
303.15 K, x1 = 0.4517 | 894.13 ± 0.76
303.15 K, x1 = 0.5214 | 888.45 ± 0.82
303.15 K, x1 = 0.5865 | 883.4 ± 0.87
303.15 K, x1 = 0.6485 | 878.8 ± 0.93
303.15 K, x1 = 0.7125 | 874.25 ± 0.99
303.15 K, x1 = 0.7885 | 869.05 ± 1.1
303.15 K, x1 = 0.8458 | 865.29 ± 1.1
303.15 K, x1 = 0.9012 | 861.75 ± 1.2
303.15 K, x1 = 0.9666 | 857.68 ± 1.2
313.15 K, x1 = 0.0569 | 923.43 ± 0.51
313.15 K, x1 = 0.1125 | 917.21 ± 0.55
313.15 K, x1 = 0.1812 | 909.9 ± 0.59
313.15 K, x1 = 0.2554 | 902.46 ± 0.64
313.15 K, x1 = 0.3251 | 895.89 ± 0.69
313.15 K, x1 = 0.4023 | 889.03 ± 0.75
313.15 K, x1 = 0.4785 | 882.65 ± 0.81
313.15 K, x1 = 0.5445 | 877.43 ± 0.86
313.15 K, x1 = 0.6054 | 872.82 ± 0.91
313.15 K, x1 = 0.6695 | 868.19 ± 0.97
313.15 K, x1 = 0.7254 | 864.3 ± 1
313.15 K, x1 = 0.7812 | 860.56 ± 1.1
313.15 K, x1 = 0.8452 | 856.41 ± 1.1
313.15 K, x1 = 0.9032 | 852.77 ± 1.2
313.15 K, x1 = 0.9577 | 849.43 ± 1.3
323.15 K, x1 = 0.0482 | 914.86 ± 0.54
323.15 K, x1 = 0.1065 | 908.29 ± 0.57
323.15 K, x1 = 0.1684 | 901.67 ± 0.61
323.15 K, x1 = 0.2341 | 895.02 ± 0.65
323.15 K, x1 = 0.3051 | 888.24 ± 0.7
323.15 K, x1 = 0.3659 | 882.75 ± 0.75
323.15 K, x1 = 0.4252 | 877.65 ± 0.79
323.15 K, x1 = 0.4932 | 872.11 ± 0.84
323.15 K, x1 = 0.5641 | 866.62 ± 0.9
323.15 K, x1 = 0.6247 | 862.17 ± 0.95
323.15 K, x1 = 0.6951 | 857.22 ± 1
323.15 K, x1 = 0.7554 | 853.17 ± 1.1
323.15 K, x1 = 0.8251 | 848.68 ± 1.1
323.15 K, x1 = 0.8812 | 845.18 ± 1.2
323.15 K, x1 = 0.9572 | 840.6 ± 1.3
333.15 K, x1 = 0.0547 | 904.33 ± 0.57
333.15 K, x1 = 0.1122 | 897.9 ± 0.61
333.15 K, x1 = 0.1815 | 890.59 ± 0.65
333.15 K, x1 = 0.2551 | 883.29 ± 0.7
333.15 K, x1 = 0.3151 | 877.68 ± 0.74
333.15 K, x1 = 0.3821 | 871.76 ± 0.79
333.15 K, x1 = 0.4554 | 865.64 ± 0.84
333.15 K, x1 = 0.5054 | 861.68 ± 0.88
333.15 K, x1 = 0.5625 | 857.35 ± 0.93
333.15 K, x1 = 0.6262 | 852.72 ± 0.98
333.15 K, x1 = 0.6785 | 849.09 ± 1
333.15 K, x1 = 0.7412 | 844.91 ± 1.1
333.15 K, x1 = 0.8054 | 840.8 ± 1.1
333.15 K, x1 = 0.8714 | 836.74 ± 1.2
333.15 K, x1 = 0.9548 | 831.81 ± 1.3
343.15 K, x1 = 0.0625 | 893.44 ± 0.61
343.15 K, x1 = 0.1214 | 886.95 ± 0.64
343.15 K, x1 = 0.1851 | 880.31 ± 0.68
343.15 K, x1 = 0.2451 | 874.4 ± 0.72
343.15 K, x1 = 0.3121 | 868.17 ± 0.76
343.15 K, x1 = 0.3852 | 861.78 ± 0.82
343.15 K, x1 = 0.4451 | 856.83 ± 0.86
343.15 K, x1 = 0.5054 | 852.1 ± 0.91
343.15 K, x1 = 0.5641 | 847.72 ± 0.95
343.15 K, x1 = 0.6214 | 843.62 ± 1
343.15 K, x1 = 0.6885 | 839.06 ± 1.1
343.15 K, x1 = 0.7451 | 835.37 ± 1.1
343.15 K, x1 = 0.8125 | 831.16 ± 1.2
343.15 K, x1 = 0.8821 | 827 ± 1.2
343.15 K, x1 = 0.9525 | 822.95 ± 1.3
353.15 K, x1 = 0.0521 | 884.42 ± 0.63
353.15 K, x1 = 0.112 | 877.82 ± 0.67
353.15 K, x1 = 0.1785 | 870.9 ± 0.71
353.15 K, x1 = 0.2352 | 865.33 ± 0.74
353.15 K, x1 = 0.2958 | 859.69 ± 0.78
353.15 K, x1 = 0.3562 | 854.38 ± 0.82
353.15 K, x1 = 0.4215 | 848.95 ± 0.87
353.15 K, x1 = 0.4854 | 843.93 ± 0.92
353.15 K, x1 = 0.5412 | 839.75 ± 0.96
353.15 K, x1 = 0.6121 | 834.72 ± 1
353.15 K, x1 = 0.6858 | 829.79 ± 1.1
353.15 K, x1 = 0.7551 | 825.38 ± 1.1
353.15 K, x1 = 0.8254 | 821.12 ± 1.2
353.15 K, x1 = 0.8851 | 817.65 ± 1.3
353.15 K, x1 = 0.9512 | 813.95 ± 1.3
